From the NIST ThermoML archive (doi:10.1021/acs.jced.8b00765)
Values joined by “and” are separate entries in the source; they are usually repeats but may differ in a detail not shown here. Identical values can stand only once. ± gives the expanded uncertainty stated by the source.

Experiments:
[1] = Liquid; for vapor or sublimation pressure: Closed cell (Static) method; for mass density: 101.33 kPa, Vibrating tube method
[2] = refractive index (Na D-line) (dimensionless); details: 293.15 K; 101.33 kPa; Liquid; Standard Abbe refractometry

CC(C)O [propan-2-ol]
[1]
Details	mass density [kg/m3]	vapor or sublimation pressure [kPa]
293.16 K	–	4.2 ± 0.3
293.18 K	–	4.2 ± 0.3
298.17 K	–	5.8 ± 0.3
303.15 K	–	7.8 ± 0.3
303.16 K	–	7.9 ± 0.3
308.15 K	–	10.5 ± 0.3
313.14 K	–	13.9 ± 0.3
313.15 K	768 ± 1	–
313.16 K	–	14 ± 0.3

Details	refractive index
[2]	1.377 ± 0.001

C=CCCCC [hex-1-ene]
[1]
Details	mass density [kg/m3]	vapor or sublimation pressure
293.18 K	–	19.9 ± 0.3 kPa and 20 ± 0.3 kPa
298.18 K	–	24.8 ± 0.3 kPa
303.16 K	–	30.5 ± 0.3 kPa
303.17 K	–	30.6 ± 0.3 kPa
308.16 K	–	37.2 ± 0.3 kPa
313.15 K	655 ± 1	45.1 ± 0.3 kPa
313.16 K	–	45.1 ± 0.3 kPa

Details	refractive index
[2]	1.388 ± 0.001

C1CCCCC1 [cyclohexane]
[1]
Details	mass density [kg/m3]	vapor or sublimation pressure [kPa]
293.17 K	–	10.4 ± 0.3
293.21 K	–	10.6 ± 0.3
298.18 K	–	13.4 ± 0.3
298.19 K	–	13.1 ± 0.3
303.16 K	–	16.4 ± 0.3
303.18 K	–	16.4 ± 0.3
308.15 K	765 ± 1	20.3 ± 0.3
313.17 K	–	24.9 ± 0.3

Details	refractive index
[2]	1.426 ± 0.001

CCCCC [pentane]
[1]
Details	mass density [kg/m3]	vapor or sublimation pressure [kPa]
288.18 K	–	46.5 ± 0.3
293.15 K	626 ± 1	–
293.18 K	–	56.6 ± 0.4
293.2 K	–	56.6 ± 0.4
298.18 K	–	68.5 ± 0.4
298.19 K	–	68.5 ± 0.4
303.17 K	–	82.2 ± 0.4
303.18 K	–	82.2 ± 0.4
308.17 K	–	97.9 ± 0.4

Details	refractive index
[2]	1.358 ± 0.001
